The data set in a line: Lipophilicity, log P of the compound. Format: physicochemical. To be noted: octanol/water.

From ChEMBL document CHEMBL4622856, “Essential Medicinal Chemistry of Essential Medicines” (J Med Chem, 2020) come the findings set out here.

The term logP denotes a log measure of how a compound divides between an organic and an aqueous phase. High values mean higher lipophilicity, low ones lower lipophilicity. As for `CN(C/C=C/C#CC(C)(C)C)Cc1cccc2ccccc12` [TERBINAFINE], the logP was > 5.

Molecule `NC(N)=O` [UREA] registered a logP of 1 to 4. The result for `O=c1[nH]cc(F)c(=O)[nH]1` [FLUOROURACIL] reads 1 to 4; that for `Nc1nc2c(ncn2COCCO)c(=O)[nH]1` [ACYCLOVIR], 1 to 4; that for `Clc1ccc(COC(Cn2ccnc2)c2ccc(Cl)cc2Cl)c(Cl)c1` (stereo unspecified) [MICONAZOLE], > 5. In the case of `CC1(C)C(C=C(Cl)Cl)C1C(=O)OCc1cccc(Oc2ccccc2)c1` (stereo unspecified) [PERMETHRIN], the logP is > 5.
